Experimental data taken from patent US10143642B2, “Sunscreen molecule and compositions thereof” (Conopco, Inc., priority 2013, dated 2018).

Assay: Stability of sunscreen actives on HPTLC plates exposed to UV radiation (densitometry)
Type: physicochemical
Details: HPTLC plate, densitometry scan at 357 nm; for % active, 0 hr: UV radiation 5.5 mW/cm^2, 0 hr exposure; for % active, 1 hr: UV radiation 5.5 mW/cm^2, 1 hr exposure; for % active, 2 hr: UV radiation 5.5 mW/cm^2, 2 hr exposure
Method: Sunscreen actives singly or as combinations as shown in Table-1 were checked for stability using the following procedure:
The method was based on spotting the HPTLC plates (in duplicate) with the sunscreen molecules of interest along with potential quencher molecules or formulations. The plate is then exposed to UV radiation (intensity 5.5 mW/cm^2) for 120 minutes. Following this the chromatographic separation was carried out using appropriate solvent system. Densitometry analysis is done to determine the amount of sunscreen degraded. Stock solutions were prepared in methanol following the ratios as mentioned in the following table. 14 μL of stock solutions were loaded (3 mm width; 16 mm separation) on a 10×10 cm F254 HPTLC plate, using CAMAG LINOMAT 5 applicator equipped with a 100 μL micro-syringe (Hamilton, Switzerland). Ascending chromatography was performed at a distance of 85 mm in a TLC chamber using n-hexane-ethyl acetate 9:1 (v/v) as the mobile phase (˜10 mL). The plates were dried at room temperature and subjected to ultraviolet absorption densitometry scan. The concentration dependent fluorescent bands due to presence of sunscreens were detected with a linear scan at 357 nm, using Camag TLC Scanner 3, in the presence of deuterium source. Slit width of 8×0.4 mm and scanning rate of 20 mm s^−1 were maintained during each densitometry scan. Concentrations of Parsol 1789 & the compound of present invention on each lane were determined from densitogram peak areas; prior and after the sun exposure using Win CATS Planar chromatography manager software.

Row | SMILES | % active, 0 hr | % active, 1 hr | % active, 2 hr
1 | COc1ccc(/C(O)=C/C(=O)c2ccc(C(C)(C)C)cc2)cc1 [Example 1, Parsol 1789] | 100% | 28% | 5%
2 | COC(=O)CCC(C)C1CCC2C3C(OC(=O)COc4ccc(C(=O)/C=C(\O)c5ccc(C(C)(C)C)cc5)cc4)C[C@@H]4CC(OC(=O)C(C#N)=C(c5ccccc5)c5ccccc5)CCC4(C)C3CCC12C (stereo partly drawn) [Example 5, UVB & UVA modified methyl ester of chenodeoxy cholic acid] | 100% | 93% | 86%
